Assay results published in US20120258938A1, “Enzymatic Production or Chemical Synthesis and Uses for 5,7-Dienes and UVB Conversion Products Thereof” (priority 2008, published 2012).

How the values were obtained:
[1] = tested on: involucrin; experiment: Involucrin protein expression in HaCaT (flow cytometry, microscopy); type: cell-based, human; details: 24 h; for expression of involucrin: 10 nM; for increase in the expression of involucrin: flow cytometry
[2] = tested on: HaCaT keratinocytes; experiment: Forward and side scatter (cell size, granularity) of HaCaT keratinocytes; type: cell-based, human; details: for Forward scatter [mean signal intensity] / Side scatter [mean signal intensity]: HaCaT keratinocytes, 10^−8 M, 24 h; for Forward scatter [mean signal intensity]: reflects cell size; for Side scatter [mean signal intensity]: reflects granularity; for forward and side scatter: result in words (Table 13)
Method: The FL-1 signal (collected from 10,000 events in side scatter/forward scatter window after debris exclusion) was recorded. Forward (relative to cell size) and side (relative to cell granularity) scatter histograms were generated and mean signal intensity was recorded. FL-1 signal values are presented as dMFI (difference between mean fluorescence intensity of sample stained with specific and isotype control antibody). Scatter signal values are presented as MSI (mean signal intensity). Signal intensities were analyzed with Cell Quest (BD Biosciences, San Diego, Calif.) and graphical representations of the FL-1 signal were prepared with WinMdi 2.8 (shareware from Joseph Trotter, The Scripps Research Institute, San Diego, Calif.).

[3] = tested on: CYP24 promoter; experiment: CYP24-Luc reporter in HaCaT keratinocytes; type: cell-based, human
Text: Construct CYP24-Luc and VDRE-Luc constructs were a generous gift from Dr. Tai Cheng, Ph.D. (Boston University Medical Campus, Core Lab Director). It was originally developed by Vaisanen et al. (27). PLuc and NFκB-Luc construct was described previously (28-29). huVDR construct was a generous gift from Dr. D. Bikle. HaCaT keratinocytes were transfected with NFκB-Luc, CYP-24-Luc, VDRE-Luc and hVDR constructs using Lipofectamine Plus (Invitrogen, Carlsbad, Calif.) in DMEM medium with firefly luciferase reporter gene plasmid and with phRL-TK.
HaCaT keratinocytes were transfected with NFκB-Luc construct using Lipofectamine Plus (Invitrogen, Carlsbad, Calif.) in DMEM medium with firefly luciferase reporter gene plasmid and with phRL-TK (expresses Renilla luciferase and serves as normalization control; Promega, Madison, Wis.). After transfection cells were incubated for 24 h in complete medium, and then after change to fresh media treated with drug or vehicle (ethanol) at the concentration of 10 nM for 30 minutes, 1 h, 4 h, 16 h and 24 h. The firefly luciferase and Renilla luciferase signals were recorded with a TD-20/20 luminometer (Turner Designs, Sunnyvale, Calif.); background luminescence was subtracted and the resulting promoter specific firefly signal was divided by the Renilla signal (proportional to the number of transfected cells). The values obtained were divided by the mean of control (untreated) cells.

[4] = tested on: anti-CD3 stimulated DBA/1 Lac J spleen cells; experiment: Cytokine/chemokine production by anti-CD3 stimulated spleen cells (Luminex); type: cell-based, mouse; details: 5 days; for G-CSF / GM-CSF / IFNγ / IL-1α / IL-6 / IL-10 / IL-17 / IP-10 / KC / MCP-1: spleen cells + anti-CD3 (4 μg/ml) + analogue 10^−7 M, supernatant, one mouse; for Th2 cytokine (IL-10) production: anti-CD3, 10^−7 M
Method: Vitamin D analogues were solubilzed in absolute alcohol (EtOH) and added at 1:100 dilution to cultures of spleen cells from normal DBA/1 Lac J mice (Table 13). […] Therefore, changes are not due to decreased cell viability.
Spleen cells from three normal 8 wk old female DBA/1 Lac J mice were cultured in 96 well tissue culture plates in quadruplicate at 2×10^6 cells/ml in RPMI 1640 medium containing 9% FCS with and without anti-CD3 (4 μg/ml) and with anti-CD3+10^−7M natural vitamin D analogues for 5 days after which time supernatants were harvested and subjected to cytokine multiplex on a Luminex instrument using Milliplex Mouse Kit (values are pg/ml). The general trend in changes in cytokine levels were similar for each of the mice but some produced different levels of each cytokine for each culture additions. Data from one mouse are given and bold numbers indicate those that changed from anti-CD3 stimulated culture with vitamin D analogues added. There was no significant stimulation of IL-1 g, IL-2, IL-4, IL-5, IL-7, IL-9, IL-12 p70, IL-13, IL-15, MIP-2, RANTES or TNFα with the anti-CD3 MOAB.

[5] = tested on: HaCaT keratinocytes; experiment: [3H]-thymidine DNA synthesis in HaCaT keratinocytes; type: cell-based, human
Outline: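 HaCaT cells in DMEM with 5% charcoal-treated FBS received vehicle (ethanol) or secosteroids for 48 hours, with [3H]-thymidine at 1 μCi/mL for the final 12 hours. Incorporated radioactivity from trypsin-harvested cells on glass fiber filters was counted by beta counter.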

[6] = HaCaT, 20-hydroxycholecalciferol at 0.1 nM

Row | Structure (SMILES) | expression of involucrin [1] | increase in the expression of involucrin ([1]; 10^−8 M) | Forward scatter [mean signal intensity] [2] [mean signal intensity] | Side scatter [mean signal intensity] [2] [mean signal intensity] | forward and side scatter ([2]; HaCaT) | side scatter, mean signal intensity (MSI) [2, 6] | CYP24 promoter activity [3] | G-CSF [4] [pg/mL] | GM-CSF [4] [pg/mL] | IFNγ [4] [pg/mL] | IL-1α [4] [pg/mL] | IL-6 [4] [pg/mL] | IL-10 [4] [pg/mL] | IL-17 [4] [pg/mL] | IP-10 [4] [pg/mL] | KC [4] [pg/mL] | MCP-1 [4] [pg/mL] | keratinocyte proliferation compared with 1α,25-dihydroxycholecalciferol ([5]; HaCaT, 48 h) | Th2 cytokine (IL-10) production [4] | other results
1 | C=C1/C(=C\C=C2/CCC[C@]3(C)[C@@H]([C@H](C)CCCC(C)(C)O)CC[C@@H]23)C[C@@H](O)C[C@@H]1O [1α,25-dihydroxycholecalciferol, (5Z,7E)-9,10-secocholesta-5,7,10(19)-triene-1α,3β,25-triol, reference compound] | increase of expression of involucrin | negligible | 122.12 ± 23.98 | 143.46 ± 15.76 | only the effect on forward scatter was statistically significant | 219±4 | stimulated transcriptional activity of CYP24 promoter | 11 | 7 | 0 | 1 | 12 | 1 | 1 | 5 | 3 | 197 |  |  | 
2 | C=C1CC[C@H](O)C/C1=C/C=C1\CCC[C@@]2(C)[C@H]1CC[C@@H]2[C@@](C)(O)CCCC(C)C [20(OH)D3, (5Z,7E)-9,10-secocholesta-5,7,10(19)-triene-3β,20-diol] |  | ~3.7 fold |  |  |  | 210±6 | failed to stimulate the CYP24 promoter activity | 10 | 51 | 494 | 8 | 55 | 37 | 59 | 83 | 39 | 100 | inhibit keratinocyte proliferation more potently than the control compound | increased | involucrin dMFI ([1]; 10^−8 M): 71±8; DNA synthesis ([3H]-thymidine assay) ([5]; 48 h, 10^−8 and 10^−7 M): inhibited DNA synthesis; forward scatter, mean signal intensity (MSI) [2, 6]: 251±2
3 | C=C1CC[C@H](O)C/C1=C/C=C1\CCC[C@]2(C)[C@@H](C(C)(O)CC(O)CC(C)C)CC[C@@H]12 (stereo partly drawn) [20,23-dihydroxycholecalciferol, (5Z,7E)-9,10-secocholesta-5,7,10(19)-triene-3β,20,23-triol] | stimulated expression of involucrin gene |  | 87.74 ± 29.18 | 154.4 ± 30 | increased significantly both forward and side scatter |  | stimulated activity of CYP24 promoter poorly | 103 | 47 | 271 | 11 | 40 | 56 | 57 | 96 | 47 | 182 | inhibit keratinocyte proliferation more potently than the control compound | increased | decrease in DNA synthesis ([5]; 0.1 nM): 30%; decrease in DNA synthesis ([5]; 10 nM): approximately 50%
4 | C=C1CC[C@H](O)C/C1=C/C=C1\CCC[C@]2(C)[C@@H](C(C)=O)CC[C@@H]12 [pD3, (5Z,7E)-3β-hydroxy-9,10-secopregna-5,7,10(19)-trien-20-one] |  |  |  |  |  |  |  |  |  |  |  |  |  |  |  |  |  |  |  | proliferation (DNA synthesis) ([5]; HaCaT, 48 hr): inhibits proliferation
